Measurements: ChEMBL document CHEMBL4419175, “Compositions for treatment, diagnosis and prognosis of diseases” (2016)
The source made the active and inactive calls.

How the values were obtained:
LNCaP [1] = assay: Effect on CREB phosphorylation in human LNCAP cells at 20 uM incubated for 48 hrs by immunoblot analysis; assay type: functional, cell-based
LNCaP [2] = assay: Inhibition of PIP5K1alpha protein expression in human LNCAP cells assessed as reduction in AKT phosphorylation at Ser473 residues at 20 uM incubated for 48 hrs by immunoblot analysis relative to control; assay type: functional
PC-3 = assay: Inhibition of PIP5K1alpha protein expression in human PC3 cells assessed as reduction in AKT phosphorylation at Ser473 residues at 50 uM incubated for 48 hrs by immunoblot analysis relative to control; assay type: functional, cell-based

COc1cc([C@@H]2c3cc4c(cc3[C@@H](O[C@@H]3O[C@@H]5CO[C@@H](C)O[C@H]5[C@H](O)[C@H]3O)[C@H]3COC(=O)[C@H]23)OCO4)cc(OC)c1O
inactive: Activity (LNCaP [1]) | inhibition (LNCaP [2]) | inhibition (PC-3)

CN1CC(=O)N2[C@H](c3ccc4c(c3)OCO4)c3[nH]c4ccccc4c3C[C@@H]2C1=O
inactive: Activity (LNCaP [1]) | inhibition (LNCaP [2]) | inhibition (PC-3)
